# Target: MTH1 (Homo sapiens, UniProt P36639)
# Experiment: MTH1 enzymatic assay and IC50 value determination (malachite green)
# Format: biochemical
# Settings: MTH1 4.8 nM, dGTP 100 μM, 15 minutes at 22° C.; group: between 2 μM and 10 μM
# Method: MTH1 Enzymatic Assay and IC50 Value Determination
# MTH1 catalyzes the hydrolysis of dGTP to dGMP and PPi. By coupling the reaction to pyrophosphatase added in excess PPi is converted to Pi that can be detected by using the malachite green assay reagent. Briefly, for IC50 value determination the compound to be analyzed is diluted in assay buffer in a 1:3 dilution series generating 12 different compound concentrations giving a final DMSO concentration of 1% in the assay well. MTH1 diluted in assay buffer (100 mM Tris-acetate, 40 mM NaCl, 10 mM magnesium acetate, 1 mM DTT and 0.005% Tween 20) fortified with E. coli pyrophosphatase (0.8 U/ml) is added to a final concentration of 4.8 nM. dGTP diluted in assay buffer is added to a final concentration of 100 μM. The reaction mixture is incubated with shaking for 15 minutes at 22° C. To 100 μl reaction mixture is 25 μl Malachite green assay regent (0.095% Malachite green in 17% H2SO4, 1.5% Ammonium molybdate, 0.17% Tween 20) added followed by incubation with shaking for 15 minutes at 22° C.
# The absorbance of the assay plate is read at 630 nm using an EnVision Multilabel plate reader. The IC50 value is determined by fitting a dose response curve to the data points using nonlinear regression analysis and the equation Y=Bottom+(Top−Bottom)/(1+10^((Log IC50−X)*HillSlope)), where Y is the read absorbance at 630 nm and X is log [compound].
row,IC50 [µM],SMILES
1,2 to 10,"CC(C)(C)CNc1cc(-c2cccc(Cl)c2Cl)nc(N)n1 [Example 180, 6-(2,3-dichlorophenyl)-4-N-(2,2-dimethylpropyl)pyrimidine-2,4-diamine]"
2,2 to 10,"Cc1cccc(-c2cc(NC3CCCCC3NC(=O)OC(C)(C)C)nc(N)n2)c1C (mixture of isomers) [Example 372, tert-Butyl N-(2-{[2-amino-6-(2,3-dimethylphenyl)pyrimidin-4-yl]amino}cyclohexyl)-carbamate]"
3,2 to 10,"Cc1ccc(S(=O)(=O)N2CCOCC2)cc1-c1cc(NCCCN2CCCC2=O)nc(N)n1 [Example 289, 1-[3-({2-amino-6-[2-methyl-5-(morpholine-4-sulfonyl)phenyl]pyrimidin-4-yl}amino)propyl]pyrrolidin-2-one]"
4,2 to 10,"Cc1cccc(-c2cc(NCCN3CCCCC3)nc(N)n2)c1C [Example 112, 6-(2,3-dimethylphenyl)-4-N-[2-(piperidin-1-yl)ethyl]pyrimidine-2,4-diamine]"

# Same assay, conditions: MTH1 4.8 nM, dGTP 100 μM, 15 minutes at 22° C.; group: less than 200 nM
row,SMILES,IC50 [µM]
1,"Cc1cccc(-c2cc(NCCc3ccc(S(C)(=O)=O)cc3)nc(N)n2)c1C [Example 331, 6-(2,3-Dimethylphenyl)-4-N-[2-(4-methanesulfonylphenyl)ethyl]pyrimidine-2,4-diamine]",< 0.2
2,"CNc1cc(-c2ccc(OC(F)(F)F)cc2)nc(N)n1 [Example 81, 4-N-methyl-6-[4-(trifluoromethoxy)phenyl]pyrimidine-2,4-diamine]",< 0.2
3,"CNc1cc(-c2cccc(C)c2Cl)nc(N)n1 [Example 226, 6-(2-chloro-3-methylphenyl)-4-N-methylpyrimidine-2,4-diamine]",< 0.2
4,"CNc1cc(-c2ccc(C(=O)C(F)(F)F)cc2)nc(N)n1 [Example 327, 1-{4-[2-Amino-6-(methylamino)pyrimidin-4-yl]phenyl}-2,2,2-trifluoroethan-1-one]",< 0.2
5,"CNc1cc(-c2ccc(NS(C)(=O)=O)cc2)nc(N)n1 [Example 46, N-{4-[2-amino-6-(methylamino)pyrimidin-4-yl]phenyl}methanesulfonamide]",< 0.2
6,"Cc1cccc(-c2cc(NCc3ccc(S(N)(=O)=O)cc3)nc(N)n2)c1C [Example 336, 4-({[2-Amino-6-(2,3-dimethylphenyl)pyrimidin-4-yl]amino}methyl)benzene-1-sulfonamide]",< 0.2
7,"Nc1nc(NC2CCCC2)cc(-c2ccc(Cl)cc2)n1 [Example 55, 6-(4-chlorophenyl)-4-N-cyclopentylpyrimidine-2,4-diamine]",< 0.2
8,"CNc1cc(-c2ccc(OC)c(Cl)c2Cl)nc(N)n1 [Example 98, 6-(2,3-dichloro-4-methoxyphenyl)-4-N-methylpyrimidine-2,4-diamine]",< 0.2
9,"CC(=O)Nc1cccc(OCCCNc2cc(-c3cccc(C)c3C)nc(N)n2)c1 [Example 363, N-[3-(3-{[2-Amino-6-(2,3-dimethylphenyl)pyrimidin-4-yl]amino}propoxy)phenyl]acetamide]",< 0.2
10,"Cc1cccc(-c2cc(NCCOc3ccccc3)nc(N)n2)c1C [Example 132, 6-(2,3-dimethylphenyl)-4-N-(2-phenoxyethyl)pyrimidine-2,4-diamine]",< 0.2
11,"CNc1cc(-c2ccc3[nH]ccc3c2)nc(N)n1 [Example 148, 6-(1H-indol-5-yl)-4-N-methylpyrimidine-2,4-diamine]",< 0.2
12,"CNc1cc(-c2cc(C(C)(C)C)ccc2OC)nc(N)n1 [Example 197, 6-(5-tert-butyl-2-methoxyphenyl)-4-N-methylpyrimidine-2,4-diamine]",< 0.2
13,"Cc1cccc(-c2cc(NCCc3cccc(O)c3)nc(N)n2)c1C [Example 269, 3-(2-{[2-amino-6-(2,3-dimethylphenyl)pyrimidin-4-yl]amino}ethyl)phenol]",< 0.2
14,"COc1ccccc1CCNc1cc(-c2cccc(C)c2C)nc(N)n1 [Example 126, 6-(2,3-dimethylphenyl)-4-N-[2-(2-methoxyphenyl)ethyl]pyrimidine-2,4-diamine]",< 0.2
15,"CNc1cc(-c2cc(C(C)C)ccc2OC)nc(N)n1 [Example 198, 6-[2-methoxy-5-(propan-2-yl)phenyl]-4-N-methylpyrimidine-2,4-diamine]",< 0.2
16,"Cc1noc(C)c1-c1cc(NCCc2ccc(Cl)cc2)nc(N)n1 [Example 453, 4-N-[2-(4-chlorophenyl)ethyl]-6-(dimethyl-1,2-oxazol-4-yl)pyrimidine-2,4-diamine]",< 0.2
17,"Cc1c(F)ccc(-c2cc(NCCc3ccc(S(C)(=O)=O)cc3)nc(N)n2)c1C [Example 430, 6-(4-fluoro-2,3-dimethylphenyl)-4-N-[2-(4-methanesulfonylphenyl)ethyl]pyrimidine-2,4-diamine]",< 0.2

# Continued, values first:
row,IC50 [µM],SMILES
1,< 0.2,"Cc1c(-c2cc(NCCc3ccc(S(N)(=O)=O)cc3)nc(N)n2)ccc(Cl)c1Cl [Example 428, 4-(2-{[2-amino-6-(3,4-dichloro-2-methylphenyl)pyrimidin-4-yl]amino}ethyl)benzene-1-sulfonamide]"
2,< 0.2,"Cc1cccc(-c2cc(NCCCNS(=O)(=O)c3c(C)noc3C)nc(N)n2)c1C [Example 359, N-(3-{[2-Amino-6-(2,3-dimethylphenyl)pyrimidin-4-yl]amino}propyl)-3,5-dimethyl-1,2-oxazole-4-sulfonamide]"
3,< 0.2,"CNc1cc(-c2cccc3c2cnn3C)nc(N)n1 [Example 90, 4-N-methyl-6-(1-methyl-1H-indazol-4-yl)pyrimidine-2,4-diamine]"
4,< 0.2,"CNc1cc(-c2cccc(NC(=O)c3ncccc3O)c2)nc(N)n1 [Example 308, N-{3-[2-amino-6-(methylamino)pyrimidin-4-yl]phenyl}-3-hydroxypyridine-2-carboxamide]"
5,< 0.2,"CNc1cc(-c2ccccc2OC)nc(N)n1 [Example 32, 6-(2-methoxyphenyl)-4-N-methylpyrimidine-2,4-diamine]"
6,< 0.2,"Cc1cccc(-c2cc(NC3CCC3)nc(N)n2)c1C [Example 151, 4-N-cyclobutyl-6-(2,3-dimethylphenyl)pyrimidine-2,4-diamine]"
7,< 0.2,"Cc1cc(Cl)ccc1-c1cc(NCCc2ccc(S(N)(=O)=O)cc2)nc(N)n1 [Example 432, 4-(2-{[2-amino-6-(4-chloro-2-methylphenyl)pyrimidin-4-yl]amino}ethyl)benzene-1-sulfonamide]"
8,< 0.2,"Cc1cccc(-c2cc(NCCNC(=O)OCc3ccccc3)nc(N)n2)c1C [Example 273, benzyl N-(2-{[2-amino-6-(2,3-dimethylphenyl)pyrimidin-4-yl]amino}ethyl)-carbamate]"
9,< 0.2,"CNc1cc(-c2cccc(NC(=O)C(=O)c3ccccc3)c2)nc(N)n1 [Example 316, N-{3-[2-Amino-6-(methylamino)pyrimidin-4-yl]phenyl}-2-oxo-2-phenylacetamide]"
10,< 0.2,"Nc1nc(NC2CC2)cc(-c2ccc(Cl)c(Cl)c2Cl)n1 [Example 418, 4-N-Cyclopropyl-6-(2,3,4-trichlorophenyl)pyrimidine-2,4-diamine]"
11,< 0.2,"CNc1cc(-c2cccc(NC(=O)/C=C/CN(C)C)c2)nc(N)n1 [Example 312, (2E)-N-{3-[2-Amino-6-(methylamino)pyrimidin-4-yl]phenyl}-4-(dimethylamino)but-2-enamide]"
12,< 0.2,"Cc1cccc(-c2cc(NCCCNS(=O)(=O)c3cccc(S(C)(=O)=O)c3)nc(N)n2)c1C [Example 402, N-(3-{[2-Amino-6-(2,3-dimethylphenyl)pyrimidin-4-yl]amino}propyl)-3-methanesulfonylbenzene-1-sulfonamide]"
13,< 0.2,"CNc1cc(-c2cc(Cl)ccc2F)nc(N)n1 [Example 210, 6-(5-chloro-2-fluorophenyl)-4-N-methylpyrimidine-2,4-diamine]"
14,< 0.2,"Cc1cccc(-c2cc(NCCCCNS(=O)(=O)c3ccc(S(C)(=O)=O)cc3)nc(N)n2)c1C [Example 424, N-(4-{[2-amino-6-(2,3-dimethylphenyl)pyrimidin-4-yl]amino}butyl)-4-methanesulfonylbenzene-1-sulfonamide]"
15,< 0.2,"Cc1cccc(-c2cc(NCCc3ccc(S(N)(=O)=O)cc3)nc(N)n2)c1C [Example 330, 4-(2-{[2-Amino-6-(2,3-dimethylphenyl)pyrimidin-4-yl]amino}ethyl)benzene-1-sulfonamide]"
16,< 0.2,"Cc1cc(CCCNc2cc(-c3cccc(C)c3C)nc(N)n2)n[nH]1 [Example 276, 6-(2,3-dimethylphenyl)-4-N-[3-(5-methyl-1H-pyrazol-3-yl)propyl]pyrimidine-2,4-diamine]"
17,< 0.2,"CCNc1cc(-c2cccc(Cl)c2Cl)nc(N)n1 [Example 66, 6-(2,3-dichlorophenyl)-4-N-ethylpyrimidine-2,4-diamine]"
18,< 0.2,"Cc1cccc(-c2cc(NCC(C)c3ccc(Cl)cc3)nc(N)n2)c1C (stereo not shown) [Example 343, 4-N-[2-(4-Chlorophenyl)propyl]-6-(2,3-dimethylphenyl)pyrimidine-2,4-diamine]"
19,< 0.2,"Cc1cccc(-c2cc(NCCCNC(=O)OC(C)(C)C)nc(N)n2)c1C [Example 275, tert-butyl N-(3-{[2-amino-6-(2,3-dimethylphenyl)pyrimidin-4-yl]amino}propyl)-carbamate]"

# Reference: patent US10174029B2, “Pyrimidine-2,4-diamine derivatives for treatment of cancer” (THOMAS HELLEDAYS STIFTELSE FOR MEDICINSK FORSKNING, priority 2012, dated 2019)
